We go through 1 compound from US20220265635A1, “TREATMENT OF NEUROLOGICAL DISEASE” (Aclipse One Inc., priority 2018, published 2022).

One assay deals with NQO1. The assay is described as follows: Example 5 western blot protein analysis in induced astrocytes. The conditions noted are these: human iAstrocytes (CTR, C9orf72, sALS, SOD1 donors), 10 uM, 48 hours treatment. The format is cell-based. The text has this: Induced NPCs were generated from adult human fibroblasts from patients who had been diagnosed with ALS and from age-matched healthy controls, using an approach reported previously (Kim et al PNAS, […]. 108(19), 7838-7843; Meyer et al., PNAS, 2014. 111(2), 829-832). Induced NPCs are differentiated into induced astrocytes (iAstrocytes) by culturing the progenitors in iAstrocyte medium for a total of 7 days with a medium change at day 3.
Cells were scraped from 10 cm dishes and cell pellets were lysed in ice cold IP lysis buffer (150 mM NaCl, 50 mM HEPES, 1 mM EDTA, 1 mM DTT, 0.5% (v/v) Triton X-100, protease inhibitor cocktail, pH 8.0) for 15 minutes and further homogenized using a 25-gauge needle and syringe. Protein samples were separated by SDS-Polyacrylamide Gel Electrophoresis and then semi-dry transferred onto nitrocellulose membranes. Membranes were blotted with Anti-NQO1—1:1000 (5% milk/TBST); rabbit; abcam; ab34173 at 4° C. overnight and anti-Beta-actin—1:5,000 (5% milk/TBST); mouse; abcam; ab6276 clone AC-15 at 4° C. overnight.

In a further assay the test system is TDP-43^Q331K mouse model. Briefly: Example 4 electrophysiology: compound muscle action potential (CMAP). The format is in vivo. The conditions noted are these: TDP-43^Q331K mice. As for the experimental part: Following genotyping, transgenic females were block randomized into three different dosing groups: vehicle once daily, 2.5 mg/kg (6aS)-6-methyl-5,6,6a,7-tetrahydro-4H-dibenzo[de,g]quinoline-10,11-diol twice daily and 5 mg/kg (6aS)-6-methyl-5,6,6a,7-tetrahydro-4H-dibenzo[de,g]quinoline-10,11-diol once daily. The doses were selected based on results of previous internal studies. Animals were weighed daily before dosing and dosed subcutaneously at 10 ml/kg with a solution of 0.5 mg/ml (6aS)-6-methyl-5,6,6a,7-tetrahydro-4H-dibenzo[de,g]quinoline-10,11-diol for the 5 mg/kg dose and 0.25 mg/ml for the 2.5 mg/kg dose. Where animals were dosed twice a day, the doses were at least 6 hours apart and the dosing solution was freshly made for the second dose of the day.
The study was designed with two main cohorts of mice. One cohort was dosed from 25 days of age until 6 months of age and mice had behavioral testing throughout the study and consisted of 14 mice per group. The other satellite cohort was dosed from 25 days of age until 3 months of age, with no behavioral testing and consisted of 6 mice per group for target engagement and histological assessment. Behavioral tests that were carried out during the experiment were: accelerated rotarod test, gait analysis, and electrophysiology.
Electrophysiological assessment of compound action muscle potential (CMAP) and repetitive stimulation was carried out at 6 weeks, 3 months and 6 months of age.
Mice were anesthetized using gaseous isoflurane and then maintained under gaseous anesthesia using a nose cone for the duration of the experiment. Body temperature was maintained with a heat pad. The fur from the lower left limb was removed using an electric razor followed by hair removal cream in order to allow skin contact of the ring electrodes. Ring electrodes were covered in electrical paste and were placed around the ankle and thigh area of the shaved limb. The rings were tightened so that there were no air gaps between the skin and electrodes but not so tight that blood flow was altered. A grounding electrode was placed into the base of the tail and stimulating electrodes were placed higher on the leg as near as possible to the sciatic nerve.
CMAPs were acquired by pulsing an electrical wave of […] duration to the sciatic notch. The position of the electrodes was tested prior to the final pulse in order to make sure they were placed correctly by visualizing the outcome of the pulse. The stimulation current was then increased until no further increase in CMAP was seen.

The next assay concerns NRF2. Briefly: Example 2 in vivo pharmacodynamic study via subcutaneous dosing, cortex: expression of genes upregulated by NRF2 activation. The conditions noted are these: wildtype mouse cortex, 5 mg/kg s.c. once daily 7 days, compared to Gapdh. Here is the method:
Wildtype mice (3 per group) were dosed subcutaneously at 0, 0.5, 1.5, 5 and 10 mg/kg (6aS)-6-methyl-5,6,6a,7-tetrahydro-4H-dibenzo[de,g]quinoline-10,11-diol hydrochloride for 7 days once daily. One animal in the 10 mg/kg dosing group was actually dosed 15 mg/kg on Day 1. To prepare the dosing solutions, (6aS)-6-methyl-5,6,6a,7-tetrahydro-4H-dibenzo[de,g]quinoline-10,11-diol was pre-weighed into bijous and stored in foil.

With `CN1CCc2cccc3c2[C@@H]1Cc1ccc(O)c(O)c1-3` [(6aS)-6-methyl-5,6,6a,7-tetrahydro-4H-dibenzo[de,g]quinoline-10,11-diol], the “NQO1 protein (western blot quantification) compared to DMSO treatment” value with NQO1 is “significant increase”. The “relative CMAP at 6 months (based on individual CMAP at 3 months) compared to the vehicle group” value in the assay on TDP-43^Q331K mouse model (2.5 mg/kg dosing group) is given as “significant improvement”. Moreover, the “relative CMAP at 6 months (based on individual CMAP at 3 months) compared to the vehicle group” value in the assay with TDP-43^Q331K mouse model (5 mg/kg dosing group) is recorded as “significant improvement”. In addition, in the assay on TDP-43^Q331K mouse model (3 months of age, 5 mg/kg dosing group), the “CMAP compared to the vehicle dosing group” value was “significant decrease”. Further, the “CMAP compared to vehicle dosed animals” value in the assay with TDP-43^Q331K mouse model (6 months of age, both dosing groups (2.5 mg/kg twice daily, 5 mg/kg once daily)) is recorded as “significant increase”. Besides, the “CMAP, between the different dosing groups” value with TDP-43^Q331K mouse model (6 weeks of age) is “no significant difference”. Moreover, in the assay with NRF2 (6 hours post final dose), the Gclm gene induction is on record as 1.51 fold, the Hmox1 gene induction worked out at 2.02 fold, the Nqo1 gene induction was 1.04 fold and the Nrf1 gene induction is 2.39 fold. Further, the Pgc1a gene induction with NRF2 (6 hours post final dose) is listed as 1.71 fold. In the assay on NRF2 (24 hours post final dose), this compound displayed a Gclm gene induction of 1.45 fold, a Hmox1 gene induction of 2.11 fold, a Nqo1 gene induction of 1.32 fold and a Nrf1 gene induction of 1.58 fold. Also, the Pgc1a gene induction in the assay with NRF2 (24 hours post final dose) came to 1.70 fold.
